Experimental data taken from the supplement of paper PMC4628005.

Legend:
Conditions in all cases: drug exposure time: 96 h
Erlotinib = compound: C#Cc1cccc(Nc2ncnc3cc(OCCOC)c(OCCOC)cc23)c1 [Erlotinib]
Procedure: (§1)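 Breast cancer cell lines were grown in RPMI 1640 with 10% FBS on collagen I-coated 96-well plates and treated for 96 h (from 24 h after seeding) with 12 dilutions per drug, in triplicate. Growth was read by sulforhodamine B total-protein staining (absorbance 570 nm) relative to diluent control, and IC50 was calculated. The top dose was 1e-5 M for most drugs; Bortezomib went to 2e-5 M and Sirolimus and 17-AAG to 2e-6 M[…].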

Docetaxel = compound: CC(=O)O[C@@]12CO[C@@H]1C[C@H](O)[C@@]1(C)C(=O)[C@H](O)C3=C(C)[C@@H](OC(=O)[C@H](O)[C@@H](NC(=O)OC(C)(C)C)c4ccccc4)C[C@@](O)([C@@H](OC(=O)c4ccccc4)[C@H]21)C3(C)C [Docetaxel]
Procedure: as §1

Paclitaxel = compound: CC(=O)O[C@H]1C(=O)[C@@]2(C)[C@H]([C@H](OC(=O)c3ccccc3)[C@]3(O)C[C@H](OC(=O)[C@H](O)[C@@H](NC(=O)c4ccccc4)c4ccccc4)C(C)=C1C3(C)C)[C@]1(OC(C)=O)CO[C@@H]1C[C@@H]2O [Paclitaxel]
Procedure: as §1

MI-219 = compound: CC(C)(C)C[C@H]1N[C@@H](C(=O)NCC[C@H](O)CO)[C@H](c2cccc(Cl)c2)[C@@]12C(=O)Nc1cc(Cl)c(F)cc12 [MI-219]
Procedure: as §1

Tamoxifen = compound: CC/C(=C(\c1ccccc1)c1ccc(OCCN(C)C)cc1)c1ccccc1 [Tamoxifen]
Procedure: as §1

Sunitinib = compound: CCN(CC)CCNC(=O)c1c(C)[nH]c(/C=C2\C(=O)Nc3ccc(F)cc32)c1C [Sunitinib]
Procedure: as §1

Methotrexate = compound: CN(Cc1cnc2nc(N)nc(N)c2n1)c1ccc(C(=O)N[C@@H](CCC(=O)O)C(=O)O)cc1 [Methotrexate]
Procedure: as §1

Sorafenib = compound: CNC(=O)c1cc(Oc2ccc(NC(=O)Nc3ccc(Cl)c(C(F)(F)F)c3)cc2)ccn1 [Sorafenib]
Procedure: as §1

Vandetanib = compound: COc1cc2/c(=N/c3ccc(Br)cc3F)nc[nH]c2cc1OCC1CCN(C)CC1 [Vandetanib]
Procedure: as §1

Gefitinib = compound: COc1cc2ncnc(Nc3ccc(F)c(Cl)c3)c2cc1OCCCN1CCOCC1 [Gefitinib]
Procedure: as §1

Nutlin-3 = compound: COc1ccc(C2=N[C@@H](c3ccc(Cl)cc3)[C@@H](c3ccc(Cl)cc3)N2C(=O)N2CCNC(=O)C2)c(OC(C)C)c1 [Nutlin-3]
Procedure: as §1

Doxorubicin = compound: COc1cccc2c1C(=O)c1c(O)c3c(c(O)c1C2=O)C[C@@](O)(C(=O)CO)C[C@@H]3O[C@H]1C[C@H](N)[C@H](O)[C@H](C)O1 [Doxorubicin]
Procedure: as §1

Lapatinib = compound: CS(=O)(=O)CCNCc1ccc(-c2ccc3ncnc(Nc4ccc(OCc5cccc(F)c5)c(Cl)c4)c3c2)o1 [Lapatinib]
Procedure: as §1

Panobinostat = compound: Cc1[nH]c2ccccc2c1CCNCc1ccc(/C=C/C(=O)NO)cc1 [Panobinostat]
Procedure: as §1

Brivanib = compound: Cc1cc2c(F)c(Oc3ncnn4cc(OC[C@@H](C)O)c(C)c34)ccc2[nH]1 [Brivanib]
Procedure: as §1

Dasatinib = compound: Cc1nc(Nc2ncc(C(=O)Nc3c(C)cccc3Cl)s2)cc(N2CCN(CCO)CC2)n1 [Dasatinib]
Procedure: as §1

Quisinostat = compound: Cn1cc(CNCC2CCN(c3ncc(C(=O)NO)cn3)CC2)c2ccccc21 [Quisinostat]
Procedure: as §1

Tipifarnib = compound: Cn1cncc1[C@@](N)(c1ccc(Cl)cc1)c1ccc2c(c1)c(-c1cccc(Cl)c1)cc(=O)n2C [Tipifarnib]
Procedure: as §1

Cisplatin = compound: N.N.[Cl][Pt][Cl] [Cisplatin]
Procedure: as §1

Azacitidine = compound: Nc1ncn([C@@H]2O[C@H](CO)[C@@H](O)[C@H]2O)c(=O)n1 [Azacitidine]
Procedure: as §1

Decitabine = compound: Nc1ncn([C@H]2C[C@H](O)[C@@H](CO)O2)c(=O)n1 [Decitabine]
Procedure: as §1

Belinostat = compound: O=C(/C=C/c1cccc(S(=O)(=O)Nc2ccccc2)c1)NO [Belinostat]
Procedure: as §1

Vorinostat = compound: O=C(CCCCCCC(=O)Nc1ccccc1)NO [Vorinostat]
Procedure: as §1

ARQ197 = compound: O=C1NC(=O)[C@@H](c2cn3c4c(cccc24)CCC3)[C@@H]1c1c[nH]c2ccccc12 [ARQ197]
Procedure: as §1

Mitoxantrone = compound: O=C1c2c(O)ccc(O)c2C(=O)c2c(NCCNCCO)ccc(NCCNCCO)c21 [Mitoxantrone]
Procedure: as §1

5-Fluorouracil = compound: O=c1[nH]cc(F)c(=O)[nH]1 [5-Fluorouracil]
Procedure: as §1

Serdemetan = compound: c1ccc2c(CCNc3ccc(Nc4ccncc4)cc3)c[nH]c2c1 [Serdemetan]
Procedure: as §1

17-AAG = compound: C=CCNC1=C2C[C@@H](C)C[C@H](OC)[C@H](O)[C@@H](C)/C=C(\C)[C@H](OC(N)=O)[C@@H](OC)/C=C\C=C(/C)C(=O)NC(=CC1=O)C2=O [17-AAG]
Procedure: (§2)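 Same SRB 96 h IC50 screen on breast cancer cell lines (RPMI 1640 + 10% FBS, collagen I-coated 96-well plates, triplicates, 12 dilutions), for drugs with a different dose range: Bortezomib up to 2e-5 M; Sirolimus and 17-AAG up to 2e-6 M. Sirolimus values at the 2e-6 M top dose are censored.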

Bortezomib = compound: CC(C)C[C@H](NC(=O)[C@H](Cc1ccccc1)NC(=O)c1cnccn1)B(O)O [Bortezomib]
Procedure: as §2

Sirolimus = compound: CO[C@H]1C[C@@H]2CC[C@@H](C)[C@@](O)(O2)C(=O)C(=O)N2CCCC[C@H]2C(=O)O[C@H]([C@H](C)C[C@@H]2CC[C@@H](O)[C@H](OC)C2)CC(=O)[C@H](C)/C=C(\C)[C@@H](O)[C@@H](OC)C(=O)[C@H](C)C[C@H](C)/C=C/C=C/C=C/1C [Sirolimus]
Procedure: as §2

Row | Test System | IC50 (SRB growth assay) (Erlotinib) | IC50 (SRB growth assay) (Docetaxel) | IC50 (SRB growth assay) (Paclitaxel) | IC50 (SRB growth assay) (MI-219) | IC50 (SRB growth assay) (Tamoxifen) | IC50 (SRB growth assay) (Sunitinib) | IC50 (SRB growth assay) (Methotrexate) | IC50 (SRB growth assay) (Sorafenib) | IC50 (SRB growth assay) (Vandetanib) | IC50 (SRB growth assay) (Gefitinib) | IC50 (SRB growth assay) (Nutlin-3) | IC50 (SRB growth assay) (Doxorubicin) | IC50 (SRB growth assay) (Lapatinib) | IC50 (SRB growth assay) (Panobinostat) | IC50 (SRB growth assay) (Brivanib) | IC50 (SRB growth assay) (Dasatinib) | IC50 (SRB growth assay) (Quisinostat) | IC50 (SRB growth assay) (Tipifarnib) | IC50 (SRB growth assay) (Cisplatin) | IC50 (SRB growth assay) (Azacitidine) | IC50 (SRB growth assay) (Decitabine) | IC50 (SRB growth assay) (Belinostat) | IC50 (SRB growth assay) (Vorinostat) | IC50 (SRB growth assay) (ARQ197) | IC50 (SRB growth assay) (Mitoxantrone) | IC50 (SRB growth assay) (5-Fluorouracil) | IC50 (SRB growth assay) (Serdemetan) | IC50 (SRB growth assay) (17-AAG) | IC50 (SRB growth assay) (Bortezomib) | IC50 (SRB growth assay) (Sirolimus)
1 | EVSA-T | > 10000 nM | 0.4 nM | 1.09 nM | > 10000 nM | 4960 nM | 2200 nM | 6030 nM | 2240 nM | 2020 nM | 7520 nM | > 10000 nM | 8.01 nM | 2530 nM | 3.19 nM | > 10000 nM | > 10000 nM | 1.36 nM | 18.5 nM | > 10000 nM | 3840 nM | 2250 nM | 85.1 nM | 380 nM | 218 nM | 2.68 nM | 1740 nM | 1130 nM | 5.76 nM | 2.74 nM | 0.0536 nM
2 | HCC 1395 | > 10000 nM | 0.408 nM | 1.76 nM | > 10000 nM | 7580 nM | 8600 nM | 1940 nM | 6310 nM | 7740 nM | > 10000 nM | > 10000 nM | 55.5 nM | 3750 nM | 26.6 nM | > 10000 nM | > 10000 nM | 13 nM | 469 nM | > 10000 nM | 2180 nM | > 10000 nM | 1070 nM | 2390 nM | 381 nM | 26.1 nM | 3750 nM | 1520 nM | 140 nM | 5.53 nM | 0.636 nM
3 | SUM 185 PE | 9480 nM | 2.17 nM | 4.07 nM | > 10000 nM | 5380 nM | 1040 nM | > 10000 nM | 2530 nM | 2280 nM | > 10000 nM | > 10000 nM | – | > 10000 nM | 8.38 nM | 4530 nM | > 10000 nM | 5.45 nM | – | – | > 10000 nM | > 10000 nM | 352 nM | 891 nM | – | 7.18 nM | > 10000 nM | 1140 nM | 8.53 nM | 8.04 nM | 0.0747 nM
4 | MDA-MB 231 | > 10000 nM | 0.535 nM | 1.49 nM | > 10000 nM | 9790 nM | 2520 nM | 2.1 nM | 4270 nM | 4800 nM | > 10000 nM | > 10000 nM | – | 65.7 nM | 15.5 nM | 6480 nM | 67.6 nM | 16.1 nM | – | – | > 10000 nM | 65.7 nM | 410 nM | 1320 nM | – | 2.65 nM | 2580 nM | 474 nM | 683 nM | 4.43 nM | 4.75 nM
5 | BT 474 | 1970 nM | 0.891 nM | 2.18 nM | > 10000 nM | 4130 nM | 5780 nM | > 10000 nM | 3500 nM | 2770 nM | 731 nM | > 10000 nM | – | > 10000 nM | 3.31 nM | > 10000 nM | 611 nM | 1.85 nM | – | – | > 10000 nM | > 10000 nM | 191 nM | 376 nM | – | 23.3 nM | > 10000 nM | 2280 nM | 19.5 nM | 5.49 nM | 0.119 nM
6 | SKBR 7 | > 10000 nM | 0.338 nM | 1.07 nM | 3200 nM | 8320 nM | 5350 nM | 11.1 nM | 2400 nM | 7760 nM | > 10000 nM | 7530 nM | – | 2510 nM | 15.9 nM | > 10000 nM | > 10000 nM | 7.17 nM | – | – | > 10000 nM | 2510 nM | 470 nM | 918 nM | – | 3.02 nM | 1580 nM | 798 nM | 74.1 nM | 24.6 nM | 0.886 nM
7 | UACC 893 | 1490 nM | 0.701 nM | 1.95 nM | > 10000 nM | 5500 nM | 2300 nM | 164 nM | 4460 nM | 4360 nM | 1710 nM | > 10000 nM | – | > 10000 nM | 5.26 nM | > 10000 nM | 6910 nM | 4.25 nM | – | – | > 10000 nM | > 10000 nM | 134 nM | 487 nM | – | 4.1 nM | 8200 nM | 2870 nM | 18.2 nM | 3.92 nM | 0.072 nM
